Test results as given in ChEMBL document CHEMBL3259669, “The discovery and SAR of cyclopenta[b]furans as inhibitors of CCR2” (Bioorg Med Chem Lett, 2014).

Legend:
in vivo [1] = conditions: rat, plasma
in vivo [2] = conditions: rat
in vivo [3] = conditions: rat, iv, 2 mg/kg
[4] = buffer
[5] = Plasma concentration in guinea pig at 10 mg/kg; format: ADME, organism-based, Cavia porcellus; set-up: dose 10 mg/kg; conditions: in vivo
[6] = rat, microsomes
Plasma = experiment: Plasma concentration in thioglycolate-induced peritoneal leukocyte infiltration in human CCR2 knock-in mouse model at 1 mg/kg, po; format: ADME, organism-based; set-up: dose 1 mg/kg, route oral; conditions: in vivo
in vivo [7] = conditions: rat, po, 10 mg/kg
Rattus norvegicus = species on record: Rattus norvegicus; conditions: in vivo, iv, 2 mg/kg
in vivo [8] = conditions: rat, po, 10 mg/kg; remark: listed apart in the source
[9] = human, microsomes

Compound: CO[C@@H]1COCC[C@@H]1N[C@@H]1C[C@H]2OCC[C@@]2(C(=O)N2CCc3ncc(C(F)(F)F)cc3C2)C1
- AUC(0-t) (in vivo [1]): 9760 ng·h/mL
- half-life (in vivo [2]): 3.8 h
- Vd (in vivo [3]): 3.2 L/kg
- solubility [4]: soluble
- concentration [5]: 23 µM
- Stability [6]: Stable
- concentration (Plasma): 0.097 µM
- bioavailability (in vivo [7]): 94%
- CL (Rattus norvegicus): 15.6 mL/mg/kg
- Cmax (in vivo [8]): 2200 ng/mL
- Stability [9]: Stable

Compound: CO[C@H]1COCC[C@H]1N[C@@H]1C[C@H]2OCC[C@@]2(C(=O)N2CCc3ncc(C(F)(F)F)cc3C2)C1
- AUC(0-t) (in vivo [1]): 3540 ng·h/mL
- half-life (in vivo [2]): 3.5 h
- Vd (in vivo [3]): 5 L/kg
- solubility [4]: soluble
- concentration [5]: 18 µM
- Stability [6]: Stable
- concentration (Plasma): 0.098 µM
- bioavailability (in vivo [7]): 91%
- CL (Rattus norvegicus): 43.2 mL/mg/kg
- Cmax (in vivo [8]): 632 ng/mL
- Stability [9]: Stable
